21 compounds from PubChem BioAssay (NCI) can be followed below.

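Briefly, cells in 96-well plates were exposed to five compound concentrations for 48 h, and endpoints were estimated by linear interpolation. GI50 marks 50% less growth. Definition used: TGI = concentration required for complete inhibition of growth.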 Bounds are passed on as bounds.

Common to all, as to experiment: NCI anticancer screen, dose series, 48 h
Assay [1] has as its system HL-60(TB) leukemia.
Assay [2] concerns ACHN renal.
The subject of assay [3] is UO-31 renal.
Assay [4] deals with SF-295 CNS.
Assay [5] deals with HCT-15 colon.
In assay [6] the test system is SR leukemia.
In assay [7] the test system is NCI/ADR-RES ovarian.
Assay [8] concerns OVCAR-3 ovarian.
The test system of assay [9] is SNB-75 CNS.
Assay [10] relates to K-562 leukemia.

Consider `CN(C)Cc1cccc(CN(C)C)[c]1[Sn]([Br])([c]1ccccc1)[c]1ccccc1`, for which the GI50 in [1] is 1.76 µM; in assay [2], 19.1 µM; in assay [3], 13.1 µM; in assay [4], 14.8 µM; in assay [5], 14.5 µM; in assay [6], 2.36 µM. The GI50 in assay [7] was 44 µM; in [8], 11.3 µM; in assay [9], 21.7 µM. Moreover, the TGI turned out to be 3.93 µM in assay [1]; 40.4 µM in [2]; 26.8 µM in assay [3]; 32.1 µM in [4]; 29.4 µM in assay [5]; 12 µM in assay [6]. Moreover, the values for the TGI in assay [7], in assay [8] and in assay [9] were over 100 µM, 24.3 µM and 66.2 µM, respectively.

On to `CC(=O)Nc1ccc2oc(=O)c3ccccc3c2c1`, for which the TGI in [1], in [2], in [10], in assay [3], in assay [4] and in assay [5] was over 100 µM in each case. Further, the TGI in assay [6], in assay [7], in assay [8] and in [9] was over 100 µM throughout.

Take `N=C1C(c2nc3ccccc3s2)=C(O)CN1c1ccc(Cl)cc1Cl`: the GI50 in [1] is 41.9 µM; in [2], 13 µM; in assay [10], 10.7 µM; in assay [3], 1.63 µM; in assay [4] it was 12.7 µM; in assay [5], 3.65 µM. Also, the GI50 was 1.49 µM in assay [6], 13.5 µM in assay [7], 18.7 µM in assay [8] and 13.1 µM in assay [9]. Moreover, the TGI was over 100 µM in [1]; 28.8 µM in assay [2]; 64.5 µM in assay [10]; 3.62 µM in [3]; 52.4 µM in [4]; 22 µM in assay [5]. Moreover, the TGI in assay [6] was 34.6 µM; in assay [7], 37.4 µM; in assay [8], over 100 µM; in assay [9], over 100 µM.

For `N#Cc1ccc(-c2nc3ccc(Cl)cc3[nH]2)cc1`, the TGI in assay [1], in assay [10], in [3], in [4], in assay [5] and in assay [6] was over 100 µM throughout. Moreover, the TGI in assay [7], in assay [8] and in assay [9] was over 100 µM throughout.

With `C#Cc1cccc(Nc2ncnc3ccc(-c4cnc(Cl)c(NS(C)(=O)=O)c4)cc23)c1`, the GI50 in [1] was 0.207 µM; in assay [2] it was 0.442 µM; in [10] it was 0.682 µM; in assay [3], 0.111 µM; in [4] it was 0.376 µM; in assay [5] it was 0.295 µM. The GI50 is 0.338 µM in assay [6], 1.24 µM in [7], 0.197 µM in [8] and 0.0101 µM in assay [9]. In addition, the TGI in assay [1] is 1.27 µM; in [2], over 100 µM; in assay [10], over 100 µM; in assay [3] it was 1.41 µM; in assay [4], 2.17 µM; in [5], 1.97 µM. Moreover, the TGI in [6] was determined as 6.35 µM; in [7], 10 µM; in assay [8], 1.29 µM; in [9], 0.125 µM.

`NC(=O)c1cc(Cl)ccc1NC(=O)c1ccccc1-c1ccccc1`: the GI50 in assay [1] is 0.284 µM; in [2], 0.799 µM; in assay [10] it was 0.416 µM; in assay [3], 1.97 µM; in [4] it was 0.347 µM; in assay [5], 0.55 µM. Further, the GI50 in assay [6] is 0.439 µM; in assay [7] it was 0.459 µM; in assay [8], 0.328 µM; in [9], 0.273 µM. In addition, the TGI in [1] is 20.4 µM; in assay [2], 87.6 µM; in assay [10] it was over 100 µM; in assay [3], over 100 µM; in assay [4] it was 15.9 µM; in [5], over 100 µM. For the same compound, the TGI in assay [6] was found to be 63 µM; in [7] it was 26.4 µM; in assay [8] it was 2.59 µM; in assay [9], 3.2 µM.

Turning to `COC1CC2C=CC3C4OC2(/C(C)=C/C(C)C(C(C)O)OC1=O)C3C(O)C(C)C4OC(=O)c1ccc[nH]1` (stereo unspecified), the TGI in assay [1] is 63.3 µM; in assay [2] it was over 100 µM; in assay [3] it was over 100 µM; in assay [4], over 100 µM; in assay [5], over 100 µM; in assay [6], 77 µM. Moreover, the TGI in assay [7] and in [8] was over 100 µM each time.

With `Cc1ccc(C(=O)CCC2C(=O)CC(C)(C)CC2=O)cc1`, the TGI in assay [2] is over 100 µM; in [3] it was over 100 µM; in assay [4] it was over 100 µM; in assay [5], over 100 µM; in assay [6] it was 65.5 µM; in assay [7], over 100 µM. The TGI in assay [8] and in [9] was over 100 µM each time.

As for `O=C1CC2C(=O)C1C(C(=O)O)C2C(=O)O` (stereo unspecified), the TGI in [1], in [2], in assay [10], in [3], in assay [4] and in [5] was over 100 µM each time. Further, the TGI in assay [6], in assay [7] and in assay [8] was over 100 µM each time.

Regarding `Cc1ccc(NC(=O)CC/C(CC(=O)c2ccc(Cl)cc2)=N\NC(=O)C(=O)NN)cc1C`, the TGI in [1], in [2], in assay [10], in assay [3], in [4] and in [5] was over 100 µM in each case. For the same compound, the TGI in [6], in assay [8] and in [9] was over 100 µM each time.

Regarding `O=C1/C=C/[C@@H](O)[C@@H]2C[C@@H](O)C[C@H]2/C=C/CCC[C@H](CO)O1`, the GI50 in assay [1] was 2.24 µM; in [2], 3.97 µM; in assay [3] it was 2.98 µM; in assay [5] it was 3.62 µM; in assay [6], 2.5 µM; in assay [7], 3.17 µM. Further, the results for the GI50 in assay [8] and in assay [9] were 2.2 µM and 2.37 µM, respectively. For the same compound, the TGI in assay [1] is 8.29 µM; in [2] it was over 100 µM; in assay [3] it was over 100 µM; in assay [5], over 100 µM; in assay [6] it was over 100 µM; in assay [7], over 100 µM. For the same compound, the TGI in assay [8] and in [9] was over 100 µM in each case.

Turning to `CCCCCCCC(=O)OCC1OC(n2cc(F)c(=O)[nH]c2=O)C(NC(=O)OCc2ccccc2)C(OC(=O)CCCCCCC)C1O` (stereo unspecified), the TGI in assay [1] was 40.8 µM; in assay [2], over 100 µM; in assay [10], 61.8 µM; in assay [3], 0.865 µM; in assay [4] it was over 100 µM; in [5], over 100 µM. Further, the TGI in assay [6] is 64 µM; in assay [8], 47.7 µM; in assay [9], over 100 µM.

On to `CC([C@H]1CCC2C3CCC4CC5(CC[C@]4(C)C3CC[C@@]21C)c1ccccc1C(=O)N5C)N(C)C` (stereo partly specified), for which the TGI in assay [1] is 46.3 µM; in assay [2], over 100 µM; in assay [10], 92.2 µM; in assay [3], 50.2 µM; in assay [4], 48.5 µM; in [5], over 100 µM. The TGI is 74.7 µM in [6], over 100 µM in [8] and 74.1 µM in assay [9].

With `Oc1cccc(Cn2c(-c3cccc(O)c3O)nc3ccccc32)c1O`, the GI50 in [2] is 2.57 µM; in [10], 5.56 µM; in [3], 12.8 µM; in [4], 1.88 µM; in assay [5], 2.08 µM; in [6] it was 3.42 µM. Besides, the GI50 was 2.34 µM in assay [7], 0.0683 µM in [8] and 26.2 µM in assay [9]. In addition, the TGI is 11.8 µM in assay [2]; over 100 µM in [10]; over 100 µM in assay [3]; 10.5 µM in assay [4]; 14.9 µM in [5]; over 100 µM in assay [6]. The values for the TGI in assay [7], in assay [8] and in assay [9] were 8.69 µM, 0.76 µM and over 100 µM, respectively.

Regarding `NNC(=O)CCC(=O)Nc1ccc(Cl)cc1Cl`, the TGI in assay [1], in assay [2], in assay [10], in assay [3], in assay [4] and in [5] was over 100 µM in each case. In addition, the TGI in [6], in assay [8] and in assay [9] was over 100 µM each time.

As to `COc1ccc(-c2nc(N)c3ncn(C4OC(CO)C(O)C4O)c3n2)cc1` (stereo unspecified), the TGI in assay [1], in [2], in assay [10], in assay [4], in [5] and in assay [6] was over 100 µM each time. Also, the TGI in assay [7], in assay [8] and in assay [9] was over 100 µM each time.

In the case of `COc1cccc(-c2nc(-c3ccc(NC(=O)c4ccccc4)cc3)[nH]c2-c2ccnc(Br)c2)c1`, the GI50 in [1] was 1.72 µM; in [2], 2.95 µM; in [10], 1.67 µM; in assay [3] it was 2.93 µM; in [5], 0.78 µM; in [6], 1.94 µM. Also, the values for the GI50 in [7], in assay [8] and in assay [9] were 3.55 µM, 4.48 µM and 0.815 µM, respectively. The TGI was 7.45 µM in assay [1]; over 100 µM in assay [2]; over 100 µM in [10]; over 100 µM in [3]; 3.28 µM in [5]; over 100 µM in assay [6]. Moreover, the TGI in [7], in [8] and in [9] was over 100 µM in each case.

As to `O=C1C(Cl)=C(Nc2cccc(O)c2)C(=O)N1c1cccc(Cl)c1`, the GI50 was 85.4 µM in assay [2]; 29.8 µM in assay [10]; 75.8 µM in assay [3]; 61.6 µM in assay [4]; 39.1 µM in assay [5]; 27 µM in [6]. The GI50 was 64.1 µM in assay [7] and 22.3 µM in assay [8]. Besides, the TGI in [2] is over 100 µM; in assay [10], 79 µM; in [3], over 100 µM; in assay [4], over 100 µM; in [5], over 100 µM; in assay [6], over 100 µM. Also, the TGI in assay [7] is over 100 µM; in [8], 64.1 µM.

As to `C=CCCC(C)N(C(=O)OC(C)(C)C)S(=O)(=O)c1ccc(C)cc1` (stereo unspecified), the TGI in assay [1], in assay [2], in assay [10], in [3], in [4] and in [5] was over 100 µM throughout. For the same compound, the TGI in assay [6], in assay [8] and in assay [9] was over 100 µM throughout.

On to `O=S1c2ccccc2N=C(c2ccc(Cl)cc2)CC1c1cccs1` (stereo unspecified), for which the TGI in assay [1] was 45.1 µM; in [2] it was over 100 µM; in [10] it was 61 µM; in assay [3], 51.6 µM; in [4] it was 39.5 µM; in assay [5], 29.1 µM. Moreover, the TGI in [6] is 43.1 µM; in [8] it was 17.3 µM; in assay [9], over 100 µM.

As to `COc1ccc(-c2csc(NC(=O)N3CCN(c4cc5c(cc4F)c(=O)c(C(=O)O)cn5C4CC4)CC3)n2)cc1`, the GI50 is 2.66 µM in assay [2]; 2.71 µM in assay [10]; 1.62 µM in assay [3]; 2.25 µM in [4]; 2.86 µM in assay [5]; 1.93 µM in assay [6]. The GI50 in [7] is 5.87 µM; in assay [8] it was 0.89 µM; in assay [9] it was 2.47 µM. The TGI in assay [2] is over 100 µM; in assay [10], 14.9 µM; in assay [3], over 100 µM; in assay [4] it was 8.79 µM; in assay [5], over 100 µM; in [6] it was 13 µM. Also, the TGI is over 100 µM in assay [7], 17.9 µM in assay [8] and 17.4 µM in assay [9].
